According to article PMC3769975 (ChemMedChem, 2012):
Converted amounts (≈) assume the structure as drawn. Like-named read-outs stand apart in the source and are kept apart here.

Columns and labels:
[1] = system: WSN-Ren luciferase virus (influenza A/WSN/33) in MDCK-HA cells; assay: microbe, parasite or virus in culture; format: cell-based, influenza A/WSN/33 (H1N1)
[2] = 1D proton NMR solubility experiment; format: physicochemical; settings: PBS with 2% DMSO, aqueous buffer, kinetic from dmso stock
[3] = system: MDCK-HA cell line
[4] = system: WSN-Ren luciferase virus in MDCK-HA cells; format: cell-based, influenza A/WSN/33 (H1N1)
[5] = system: wild type influenza A/WSN/33 virus in A549 cells; assay: qRT-PCR of viral NP mRNA, A549 cells infected with wild type WSN virus; format: cell-based, influenza A/WSN/33 (H1N1); settings: 10 μM, 1 μM and 0.1 μM
[6] = molecular target: recombinant neuraminidase N1 (A/California/04/09) (Influenza A virus (A/California/04/2009(H1N1)), UniProt C3W5S3); assay: Fluorescent neuraminidase assay; format: biochemical, influenza A/California/04/09; settings: serial dilutions from 100 μM to 6.4 nM
[7] = system: panel of 13 kinases; assay: Kinase panel inhibition; format: biochemical; settings: concentrations up to 5 μM

Row | SMILES | anti-influenza activity (in words, SAR discussion) [1] | EC50 ([1]; Influenza A virus, WSN) [nM] | further results
1 | Cc1cc2cc(CNC(=O)c3ccccc3)c(=O)[nH]c2cc1C [Compound 24, N-((6,7-dimethyl-2-oxo-1,2-dihydroquinolin-3-yl)methyl)benzamide] | not sufficient | > 100000 | –
2 | CCC(C)(C)n1nnnc1C(C(C)C)N(Cc1cc2cc(C)c(C)cc2[nH]c1=O)CC1CCCO1 (stereo not shown) [Compound 25, 6,7-dimethyl-3-(((2-methyl-1-(1-(tert-pentyl)-1H-tetrazol-5-yl)propyl)((tetrahydrofuran-2-yl)methyl)amino)methyl)quinolin-2(1H)-one] | low micromolar range | ~3000 | EC50 [1]: 2950 nM
3 | CCOC(=O)C1=C[C@@H](OC(CC)CC)[C@H](NC(C)=O)[C@@H](N)C1 [oseltamivir phosphate, reference compound] | – | ~0.5 | potency relative to best compounds of Table 1 [1]: roughly 100 fold
4 | Cc1cc2cc(CNCCO)c(=O)[nH]c2cc1C [Compound 6, 3-((2-hydroxyethylamino)methyl)-6,7-dimethylquinolin-2(1H)-one] | did not elicit any anti-influenza activity | > 100000 | –
5 | CCC(C)(C)n1nnnc1C(C(C)C)N(CCO)Cc1cc2cc(C)c(C)cc2[nH]c1=O (stereo not shown) [Compound 7, 3-(((2-hydroxyethyl)(2-methyl-1-(1-tert-pentyl-1H-tetrazole-5-yl)propyl)amino)methyl)-6,7-dimethylquinolin-2(1H)-one] | – | 45.6 | solubility [2]: 10 to 15 µM (≈ 4.41 to 6.61 µg/mL); cytotoxicity profile [3]: good cytotoxicity profile; viral NP mRNA expression compared to DMSO treated controls [4]: reduction of the NP mRNA expression; viral replication (NP mRNA) after 26 hour incubation ([4]; 10 μM): minimal viral replication; viral NP mRNA expression levels [5]: reduced NP mRNA expression levels in a dose dependent matter; activity against neuraminidase [6]: ineffective; inhibition of selected kinases [7]: did not significantly inhibit
6 | CCC(C)(C)n1nnnc1C(NCc1cc2cc(C)c(C)cc2[nH]c1=O)C(C)C (stereo not shown) [Compound 23, 6,7-dimethyl-3-(((2-methyl-1-(1-(tert-pentyl)-1H-tetrazole-5-yl)propyl)amino)methyl)quinolin-2(1H)-one] | inactivation | > 100000 | –
